Test results published in PubChem BioAssay (NCI).
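96-well plates; 48 h exposure; 5 concentrations. Endpoints by linear interpolation between flanking doses. Not reached: highest tested concentration assigned. The concentration for 50% growth inhibition is given as GI50. TGI marks complete inhibition of growth.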

Experiments:
Experiment in all cases: growth of human tumour cells (NCI), 48 h
[1] = test system: OVCAR-5 ovarian
[2] = test system: KM12 colon
[3] = test system: ACHN renal
[4] = test system: UO-31 renal
[5] = test system: PC-3 prostate
[6] = test system: SF-268 CNS
[7] = test system: OVCAR-4 ovarian
[8] = test system: RXF 393 renal
[9] = test system: OVCAR-3 ovarian
[10] = test system: DU-145 prostate
[11] = test system: SK-MEL-5 melanoma
[12] = test system: COLO 205 colon
[13] = test system: SNB-75 CNS
[14] = test system: SNB-19 CNS
[15] = test system: MALME-3M melanoma

With `Cc1cc(OCc2nnc3n2N=C(c2cc(F)c(Cl)cc2Cl)/C(=C/c2ccc(Cl)cc2)S3)ccc1Cl` the TGI [1] was 95.5 µM, the TGI [2] was 60.2 µM and the TGI [3] was greater than 100 µM. The TGI [4] was greater than 100 µM, the TGI [5] was 65 µM and the TGI [6] was 51.4 µM. For the same compound, the TGI [7] was 59.8 µM, the TGI [8] was 39.4 µM and the TGI [9] was greater than 100 µM. It also gave a TGI [10] of 36.6 µM and a TGI [11] of 36.5 µM.

Work on `Cc1cn(CCCCCOC(=O)NC(CCCN=C(N)N)C(=O)O)c(=O)[nH]c1=O` (stereo not drawn) yielded a TGI [1] greater than 100 µM, a TGI [12] of 63.2 µM and a TGI [2] greater than 100 µM. The TGI [3] was greater than 100 µM, the TGI [4] was greater than 100 µM and the TGI [5] was greater than 100 µM. The TGI [6] was greater than 100 µM, the TGI [7] was greater than 100 µM and the TGI [8] was greater than 100 µM. For the same compound, the TGI [13] was greater than 100 µM, the TGI [14] was greater than 100 µM and the TGI [9] was greater than 100 µM. The TGI [10] was greater than 100 µM.

`Cn1c(=O)c2c(no[n+]2[O-])c2ccccc21` showed a TGI [12] of 35.8 µM, a TGI [2] of 25.2 µM and a TGI [3] of 83 µM. It also gave a TGI [4] of 55 µM, a TGI [5] of 71.8 µM and a TGI [6] of 59.2 µM. The TGI [7] was 45.5 µM, the TGI [8] was 62 µM and the TGI [13] was 35.9 µM. It also gave a TGI [14] of 84.2 µM, a TGI [9] of 48.4 µM and a TGI [15] of 29 µM. For the same compound, the TGI [11] was 26 µM.

In the case of `Cc1c(CNc2ccc(C(=O)NC(CC(=O)O)C(=O)O)cc2)ccc2nc(N)nc(N)c12` (stereo not drawn), the TGI [1] is reported as greater than 1000 µM, the TGI [2] is reported as greater than 1000 µM and the TGI [3] is reported as greater than 1000 µM. The TGI [4] was greater than 1000 µM, the GI50 [5] was less than 0.01 µM and the TGI [5] was greater than 1000 µM. The TGI [6] was greater than 1000 µM, the GI50 [7] was greater than 1000 µM and the TGI [7] was greater than 1000 µM. It also gave a GI50 [8] greater than 1000 µM, a TGI [8] greater than 1000 µM and a TGI [14] greater than 1000 µM. For the same compound, the GI50 [9] was 34.6 µM, the TGI [9] was greater than 1000 µM and the GI50 [15] was less than 0.01 µM. For the same compound, the TGI [15] was greater than 1000 µM, the TGI [10] was greater than 1000 µM and the TGI [11] was greater than 1000 µM.

`Cc1ccc(C(=O)N/N=C(\N=Nc2ccccc2[N+](=O)[O-])c2ccc(N(C)C)cc2)cc1` showed a TGI [1] greater than 100 µM, a TGI [12] greater than 100 µM and a TGI [2] greater than 100 µM. It also gave a TGI [3] greater than 100 µM, a TGI [4] greater than 100 µM and a TGI [5] greater than 100 µM. The TGI [6] was greater than 100 µM, the TGI [7] was greater than 100 µM and the TGI [14] was greater than 100 µM. For the same compound, the TGI [9] was greater than 100 µM and the TGI [11] was greater than 100 µM.

For `CCO/C=N/NC(=O)CSc1nc2ccc(I)cc2c(=O)n1Cc1ccccc1`, the TGI [1] was greater than 100 µM, the TGI [12] was greater than 100 µM and the TGI [2] was greater than 100 µM. It also gave a TGI [3] greater than 100 µM, a TGI [4] greater than 100 µM and a TGI [5] greater than 100 µM. The TGI [6] was greater than 100 µM, the TGI [7] was greater than 100 µM and the TGI [8] was greater than 100 µM. It also gave a TGI [13] greater than 100 µM, a TGI [14] greater than 100 µM and a TGI [9] greater than 100 µM. For the same compound, the TGI [10] was greater than 100 µM and the TGI [11] was greater than 100 µM.

`CN(CCN(C)C(=S)NN)C(=S)NN` was tested, and the TGI [1] was greater than 100 µM, the TGI [12] was greater than 100 µM and the TGI [2] was greater than 100 µM. It also gave a TGI [3] greater than 100 µM, a TGI [4] greater than 100 µM and a TGI [5] greater than 100 µM. It also gave a TGI [6] greater than 100 µM, a TGI [7] greater than 100 µM and a TGI [13] greater than 100 µM. For the same compound, the TGI [14] was greater than 100 µM, the TGI [9] was greater than 100 µM and the TGI [15] was greater than 100 µM. For the same compound, the TGI [10] was greater than 100 µM and the TGI [11] was greater than 100 µM.

With `COc1ccc(/C=N/n2c(-c3ccccc3)n[nH]c2=O)cc1` the TGI [1] was greater than 100 µM, the TGI [12] was greater than 100 µM and the TGI [2] was greater than 100 µM. The TGI [3] was greater than 100 µM, the TGI [4] was greater than 100 µM and the TGI [5] was greater than 100 µM. It also gave a TGI [6] greater than 100 µM, a TGI [7] greater than 100 µM and a TGI [13] greater than 100 µM. It also gave a TGI [14] greater than 100 µM, a TGI [9] greater than 100 µM and a TGI [15] greater than 100 µM. The TGI [10] was greater than 100 µM.

Compound `COc1ccc(-c2c(C#N)c(O)n(NS(=O)(=O)c3ccc(C)cc3)c(=O)c2C#N)cc1` has a TGI [1] greater than 100 µM, a TGI [12] greater than 100 µM and a TGI [2] greater than 100 µM. The TGI [3] was greater than 100 µM, the TGI [5] was greater than 100 µM and the TGI [6] was greater than 100 µM. For the same compound, the TGI [7] was greater than 100 µM, the TGI [8] was greater than 100 µM and the TGI [13] was greater than 100 µM. It also gave a TGI [14] greater than 100 µM, a TGI [15] greater than 100 µM and a TGI [11] greater than 100 µM.

Compound `CCCC(O)C(NC(=O)CCl)C(=O)O` (stereo not drawn) has a TGI [1] greater than 100 µM, a TGI [12] greater than 100 µM and a TGI [2] greater than 100 µM. It also gave a TGI [4] greater than 100 µM, a TGI [6] greater than 100 µM and a TGI [7] greater than 100 µM. For the same compound, the TGI [8] was greater than 100 µM, the TGI [13] was greater than 100 µM and the TGI [14] was greater than 100 µM. It also gave a TGI [9] greater than 100 µM, a TGI [15] greater than 100 µM and a TGI [11] greater than 100 µM.

In the case of `CC[C@]1(Cc2ccc(OC)c(OC)c2)[C@@H]2C[C@@H](C3OCCO3)ON2O[C@H](OC2CCCC2(c2ccccc2)c2ccccc2)[C@@H]1OC(C)=O` (stereo partly drawn), the TGI [1] is reported as 36 µM, the TGI [12] is reported as 69.3 µM and the TGI [2] is reported as 29.5 µM. The TGI [3] was 33.5 µM, the TGI [4] was 37.7 µM and the TGI [5] was 63.8 µM. For the same compound, the TGI [6] was 44.1 µM, the TGI [13] was 46.3 µM and the TGI [14] was 36.9 µM. It also gave a TGI [9] of 25.4 µM, a TGI [10] of 83.9 µM and a TGI [11] of 37.7 µM.

Compound `COc1cc2c(cc1O)C1C(O)C(O)C=C3CCN(C2)C31` (stereo not drawn) has a TGI [1] of 24.6 µM, a TGI [12] of 3.14 µM and a TGI [2] of 11 µM. The TGI [3] was 7.87 µM, the TGI [4] was 9.04 µM and the TGI [6] was 10.5 µM. For the same compound, the TGI [7] was 4.84 µM, the TGI [8] was 5.42 µM and the TGI [13] was 9.69 µM. The TGI [14] was 10.1 µM, the TGI [9] was 8.12 µM and the TGI [15] was 3.86 µM. The TGI [11] was 2.95 µM.

For `O=C(NC(CO)Cc1ccc(Oc2cc(CC(CO)NC(=O)OCc3ccccc3)ccc2OC(=O)OCc2ccccc2)cc1)OCc1ccccc1` (stereo not drawn), the TGI [1] was greater than 100 µM, the TGI [12] was 36 µM and the TGI [2] was 50.4 µM. For the same compound, the TGI [3] was 62.7 µM, the TGI [4] was greater than 100 µM and the TGI [5] was 32.7 µM. It also gave a TGI [6] of 88.9 µM, a TGI [7] of 65.3 µM and a TGI [13] of 51.1 µM. The TGI [14] was greater than 100 µM, the TGI [9] was 45 µM and the TGI [15] was 31.5 µM. It also gave a TGI [10] of 51.3 µM.

`C[C@@]12CCC3C1C=C1C(=O)c4cc(O)ccc4C(=O)[C@]1(O2)[C@@]3(C)C=O` gave a TGI [1] of 26.3 µM, a TGI [12] of 19.5 µM and a TGI [2] of 18.1 µM. For the same compound, the TGI [3] was 17.1 µM, the TGI [4] was 13.7 µM and the TGI [5] was 19.5 µM. For the same compound, the TGI [6] was 36.7 µM, the TGI [7] was 15.7 µM and the TGI [8] was 14.1 µM. The TGI [14] was 18.4 µM, the TGI [9] was 12 µM and the TGI [10] was 11.3 µM. It also gave a TGI [11] of 16.1 µM.

`Cc1ccsc1/C=N/Nc1ccc2ccccc2n1` was tested, and the TGI [1] was greater than 100 µM, the TGI [12] was greater than 100 µM and the TGI [2] was greater than 100 µM. The TGI [3] was greater than 100 µM, the TGI [4] was greater than 100 µM and the TGI [5] was greater than 100 µM. The TGI [6] was greater than 100 µM, the TGI [7] was greater than 100 µM and the TGI [8] was 89.8 µM. For the same compound, the TGI [13] was greater than 100 µM, the TGI [14] was greater than 100 µM and the TGI [9] was greater than 100 µM. For the same compound, the TGI [10] was greater than 100 µM and the TGI [11] was 13.2 µM.

For `O=C(O)c1cccnc1`, the TGI [1] was greater than 100 µM, the TGI [12] was greater than 100 µM and the TGI [2] was greater than 100 µM. It also gave a TGI [3] greater than 100 µM, a TGI [4] greater than 100 µM and a TGI [5] greater than 100 µM. The TGI [6] was greater than 100 µM, the TGI [7] was greater than 100 µM and the TGI [13] was greater than 100 µM. The TGI [14] was greater than 100 µM, the TGI [9] was greater than 100 µM and the TGI [15] was greater than 100 µM. It also gave a TGI [10] greater than 100 µM and a TGI [11] greater than 100 µM.

Compound `O=C(NCCCN(CCCCN(CCCNC(=O)C(F)(F)F)CCCc1ccccc1)CCCc1ccccc1)C(F)(F)F` has a TGI [1] of 25.9 µM, a TGI [12] of 3.11 µM and a TGI [2] of 3.65 µM. It also gave a TGI [3] of 3.42 µM, a TGI [4] of 2.52 µM and a TGI [6] of 3.3 µM. The TGI [7] was 17.6 µM, the TGI [8] was 3.31 µM and the TGI [13] was 2.56 µM. The TGI [14] was 4.17 µM, the TGI [15] was 3.34 µM and the TGI [10] was 3.99 µM. For the same compound, the TGI [11] was 3.43 µM.
